Results from patent US20050282755A1, “Compositions having antimicrobial activity and uses thereof” (priority 2004, published 2005).
Values after ≈ are worked out from the molar mass of the structure shown. Starred links: 1 amine or outer side, 2 acyl side, 3 side chain; linkers in the order of their positions; H or OH if unused. Non-standard residues stand in square brackets, D forms with d. Residues, ends and D or L forms follow the SMILES beside them. *: point of attachment. Ethylenediamine = C(CN[*:2])N[*:1]; Palmitoyl = CCCCCCCCCCCCCCCC(=O)*; Lauroyl = CCCCCCCCCCCC(=O)*; Hexanoyl = CCCCCC(=O)*

Assays:
Format in all cases: cell-based
[1] = test system: Staphylococcus aureus ATCC 29213; assay: MIC, NCCLS M7-A6 broth microdilution, cation-adjusted Mueller Hinton broth (Table 9, no superscript); conditions: ATCC 29213
In short: (§1)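 MIC determined by microdilution in cation-adjusted Mueller Hinton broth after overnight growth at 37° C, defined as the lowest peptide level lacking turbidity.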

[2] = test system: Escherichia coli ATCC 25922; assay: MIC, NCCLS M7-A6 broth microdilution (Table 9, no superscript); conditions: ATCC 25922
In short: as §1

[3] = test system: Salmonella dublin (Lane); assay: as above
In short: as §1

[4] = test system: Staphylococcus epidermidis ATCC 12228; assay: as above; conditions: ATCC 12228
In short: as §1

[5] = test system: Pseudomonas aeruginosa ATCC 27853; assay: as above; conditions: ATCC 27853
In short: as §1

[6] = test system: Candida albicans ATCC 18804; assay: MIC in yeasts, NCCLS M27-A2 broth microdilution, RPMI 1640 (Table 9, letter e); conditions: ATCC 18804
Method: Briefly, RPMI 1640 supplemented with glutamine and phenol red as a pH indicator was used in the broth microdilution method. A 96-well plate was inoculated so that the final inoculum of yeast for each well contained between 0.5×10^3 and 2.5×10^3 CFU/milliliter. […] Plates were incubated for 24 to 48 hours at 37° C. The lowest concentration of peptide that contained no visible growth was determined as the MIC. MIC values that utilized this method of MIC determination are indicated in Table 9 with a subscript letter “e.” “Peptide Number” corresponds to peptide compositions and corresponding designations in Table 3.

| Structure (SMILES) | MIC S. aureus [1] | MIC E. coli [2] | MIC S. dublin [3] | MIC S. epidermidis [4] | MIC P. aeruginosa [5] | MIC C. albicans [6] |
| --- | --- | --- | --- | --- | --- | --- |
| CCCCCCCCCCCC(=O)N[C@H](CCCNC(=N)N)C(=O)N[C@H](CO)C(=O)N[C@H](CCCNC(=N)N)C(=O)N[C@H](Cc1c[nH]c2ccccc12)C(=O)N[C@H](CCCNC(=N)N)C(=O)N[C@H](CC(=O)O)C(=O)N[C@@H](C(=O)N[C@H](C)C(=O)N[C@H](CCCNC(=N)N)C(=O)N[C@H](CC(N)=O)C(N)=O)C(C)C [Peptide 117, Lauryl-rsrwrdvarn-NH2] (Lauroyl-[dR][dS][dR][dW][dR][dD][dV][dA][dR][dN]-NH2) | 32 µg/mL (≈ 21.4 µM) | >64 µg/mL | >64 µg/mL | 16 µg/mL (≈ 10.7 µM) | 64 µg/mL (≈ 42.8 µM) | 16e ug/mL |
| CCCCCCCCCCCC(=O)N[C@@H](CCCNC(=N)N)C(=O)N[C@@H](CO)C(=O)N[C@@H](CCCNC(=N)N)C(=O)N[C@@H](Cc1c[nH]c2ccccc12)C(=O)N[C@@H](CCCNC(=N)N)C(=O)N[C@@H](CC(=O)O)C(=O)N[C@@H](Cc1c[nH]c2ccccc12)C(=O)N[C@@H](C)C(=O)N[C@@H](CCCNC(=N)N)C(=O)N[C@@H](CC(N)=O)C(=O)N[C@@H](Cc1c[nH]c2ccccc12)C(=O)N[C@@H](CCSC)C(=O)N[C@@H](CCCNC(=N)N)C(=O)N[C@@H](CC(C)C)C(=O)N[C@@H](CC(C)C)C(N)=O [Peptide 146, Lauryl-RSRWRDWARNWMRLL-NH2] (Lauroyl-RSRWRDWARNWMRLL-NH2) | 64 µg/mL (≈ 28 µM) | >64 µg/mL | 64 µg/mL (≈ 28 µM) | 4 µg/mL (≈ 1.75 µM) | >64 µg/mL | 2e ug/mL |
| CCCCCCCCCCCC(=O)N[C@H](CCCNC(=N)N)C(=O)N[C@H](CO)C(=O)N[C@H](CCCNC(=N)N)C(=O)N[C@H](Cc1c[nH]c2ccccc12)C(=O)N[C@H](CCCNC(=N)N)C(=O)N[C@H](CC(=O)O)C(=O)N[C@@H](C(=O)N[C@H](C)C(N)=O)C(C)C [Peptide 119, Lauryl-rsrwrdva-NH2] (Lauroyl-[dR][dS][dR][dW][dR][dD][dV][dA]-NH2) | 32 µg/mL (≈ 26.1 µM) | 64 µg/mL (≈ 52.2 µM) | 64 µg/mL (≈ 52.2 µM) | 16 µg/mL (≈ 13 µM) | 32 µg/mL (≈ 26.1 µM) | 16e ug/mL |
| CCCCCCCCCCCC(=O)N[C@@H](CCCNC(=N)N)C(=O)N[C@@H](CO)C(=O)N[C@@H](CCCNC(=N)N)C(=O)N[C@@H](Cc1c[nH]c2ccccc12)C(=O)N[C@@H](CCCNC(=N)N)C(=O)N[C@@H](CC(=O)O)C(=O)N[C@H](C(N)=O)C(C)C [Peptide 103, Lauryl-RSRWRDV-NH2] (Lauroyl-RSRWRDV-NH2) | >32 µg/mL | >64 µg/mL | >64 µg/mL | 64 µg/mL (≈ 55.4 µM) | >64 µg/mL | >64e ug/mL |
| CCCCCCCCCCCC(=O)N[C@@H](Cc1c[nH]c2ccccc12)C(=O)N[C@@H](CCCNC(=N)N)C(=O)N[C@@H](CC(=O)O)C(=O)N[C@H](C(=O)N[C@@H](C)C(=O)N[C@@H](CCCNC(=N)N)C(=O)N[C@@H](CC(N)=O)C(=O)N[C@@H](Cc1ccccc1)C(=O)N[C@@H](CCSC)C(=O)N[C@@H](CCCNC(=N)N)C(N)=O)C(C)C [Peptide 112, Lauryl-WRDVARNFMR-NH2] (Lauroyl-WRDVARNFMR-NH2) | >64 µg/mL |  | >64 µg/mL |  |  | >64e ug/mL |
| CCCCCCCCCCCC(=O)N[C@H](CCCNC(=N)N)C(=O)N[C@H](CC(=O)O)C(=O)N[C@@H](C(=O)N[C@H](C)C(=O)N[C@H](CCCNC(=N)N)C(=O)N[C@H](CC(N)=O)C(=O)N[C@H](Cc1ccccc1)C(N)=O)C(C)C [Peptide 124, Lauryl-rdvarnf-NH2] (Lauroyl-[dR][dD][dV][dA][dR][dN][dF]-NH2) | >64 µg/mL | >64 µg/mL | >64 µg/mL | >64 µg/mL | >64 µg/mL | 64e ug/mL |
| CCCCCCCCCCCC(=O)N[C@H](Cc1c[nH]c2ccccc12)C(=O)N[C@H](CCCNC(=N)N)C(=O)N[C@H](CC(=O)O)C(=O)N[C@@H](C(=O)N[C@H](C)C(=O)N[C@H](CCCNC(=N)N)C(=O)N[C@H](CC(N)=O)C(N)=O)C(C)C [Peptide 123, Lauryl-wrdvarn-NH2] (Lauroyl-[dW][dR][dD][dV][dA][dR][dN]-NH2) | >64 µg/mL | >64 µg/mL | >64 µg/mL | 64 µg/mL (≈ 58.3 µM) | >64 µg/mL | 64e ug/mL |
| CCCCCC(=O)N[C@H](CCCNC(=N)N)C(=O)N[C@H](CO)C(=O)N[C@H](CCCNC(=N)N)C(=O)N[C@H](Cc1c[nH]c2ccccc12)C(=O)N[C@H](CCCNC(=N)N)C(=O)N[C@H](CC(=O)O)C(=O)N[C@@H](C(=O)N[C@H](C)C(=O)N[C@H](CCCNC(=N)N)C(=O)N[C@H](CC(N)=O)C(=O)N[C@H](Cc1ccccc1)C(=O)N[C@H](CC(C)C)C(=O)N[C@H](CCCNC(=N)N)C(N)=O)C(C)C [Peptide 251, Hexyl-rsrwrdvarnflr-NH2] (Hexanoyl-[dR][dS][dR][dW][dR][dD][dV][dA][dR][dN][dF][dL][dR]-NH2) |  |  |  |  |  | 64e ug/mL |
| CCCCCCCCCCCC(=O)N[C@@H](CCCNC(=N)N)C(=O)N[C@@H](CO)C(=O)N[C@@H](CCCNC(=N)N)C(=O)N[C@@H](Cc1c[nH]c2ccccc12)C(=O)N[C@@H](CCCNC(=N)N)C(=O)N[C@@H](CC(=O)O)C(=O)N[C@@H](Cc1c[nH]c2ccccc12)C(=O)N[C@@H](Cc1c[nH]c2ccccc12)C(=O)N[C@@H](CCCNC(=N)N)C(=O)N[C@@H](CC(N)=O)C(=O)N[C@@H](Cc1c[nH]c2ccccc12)C(=O)N[C@@H](CCSC)C(=O)N[C@@H](CCCNC(=N)N)C(N)=O [Peptide 147, Lauryl-RSRWRDWWRNWMR-NH2] (Lauroyl-RSRWRDWWRNWMR-NH2) | 64 µg/mL (≈ 29.5 µM) | 64 µg/mL (≈ 29.5 µM) | 64 µg/mL (≈ 29.5 µM) | 2 µg/mL (≈ 0.921 µM) | >64 µg/mL | 2e ug/mL |
| CCCCCCCCCCCC(=O)N[C@@H](CCCNC(=N)N)C(=O)N[C@@H](CO)C(=O)N[C@@H](CCCNC(=N)N)C(=O)N[C@@H](Cc1c[nH]c2ccccc12)C(=O)N[C@@H](CCCNC(=N)N)C(=O)N[C@@H](CC(=O)O)C(=O)N[C@@H](Cc1c[nH]c2ccccc12)C(=O)N[C@@H](Cc1c[nH]c2ccccc12)C(=O)N[C@@H](CCCNC(=N)N)C(=O)N[C@@H](CC(N)=O)C(=O)N[C@@H](Cc1c[nH]c2ccccc12)C(=O)N[C@@H](CCSC)C(=O)N[C@@H](CCCNC(=N)N)C(=O)N[C@@H](CC(C)C)C(=O)N[C@@H](CC(C)C)C(N)=O [Peptide 148, Lauryl-RSRWRDWWRNWMRLL-NH2] (Lauroyl-RSRWRDWWRNWMRLL-NH2) | >64 µg/mL | >64 µg/mL | >64 µg/mL | >64 µg/mL | >64 µg/mL | 4e ug/mL |
| CCCCCCCCCCCC(=O)N[C@H](CCCNC(=N)N)C(=O)N[C@H](CO)C(=O)N[C@H](CCCNC(=N)N)C(=O)N[C@H](Cc1c[nH]c2ccccc12)C(=O)N[C@H](CCCNC(=N)N)C(=O)N[C@H](CC(=O)O)C(=O)N[C@@H](C(=O)N[C@H](C)C(=O)N[C@H](CCCNC(=N)N)C(=O)N[C@H](CC(N)=O)C(=O)N[C@H](CO)C(=O)N[C@H](CCSC)C(=O)N[C@H](CCCNC(=N)N)C(N)=O)C(C)C [Peptide 234, Lauryl-rsrwrdvarnsmr-NH2] (Lauroyl-[dR][dS][dR][dW][dR][dD][dV][dA][dR][dN][dS][dM][dR]-NH2) | 64 µg/mL (≈ 34.2 µM) | >64 µg/mL | 64 µg/mL (≈ 34.2 µM) | 16 µg/mL (≈ 8.55 µM) | >64 µg/mL |  |
| CCCCCCCCCCCCCCCC(=O)NCCNC(=O)[C@H](CCCNC(=N)N)NC(=O)[C@H](CC(C)C)NC(=O)[C@H](Cc1ccccc1)NC(=O)[C@H](CC(N)=O)NC(=O)[C@H](CCCNC(=N)N)NC(=O)[C@H](C)NC(=O)[C@@H](NC(=O)[C@H](CC(=O)O)NC(=O)[C@H](CCCNC(=N)N)NC(=O)[C@H](Cc1c[nH]c2ccccc12)NC(=O)[C@H](CCCNC(=N)N)NC(=O)[C@H](CO)NC(=O)[C@@H](N)CCCNC(=N)N)C(C)C [Peptide 172, H2N-RSRWRDVARNFLR-Ethylamidopalmitoyl] (H-RSRWRDVARNFLR-{Ethylenediamine-Palmitoyl}; C-terminus assumed) | >64 µg/mL | >64 µg/mL | >64 µg/mL | 64 µg/mL (≈ 31.8 µM) | >64 µg/mL |  |
| CCCCCCCCCCCCCCCC(=O)NCCCC[C@H](NC(=O)[C@H](CCCNC(=N)N)NC(=O)[C@H](CC(C)C)NC(=O)[C@H](Cc1ccccc1)NC(=O)[C@H](CC(N)=O)NC(=O)[C@H](CCCNC(=N)N)NC(=O)[C@H](C)NC(=O)[C@@H](NC(=O)[C@H](CC(=O)O)NC(=O)[C@H](CCCNC(=N)N)NC(=O)[C@H](Cc1c[nH]c2ccccc12)NC(=O)[C@H](CCCNC(=N)N)NC(=O)[C@H](CO)NC(=O)[C@@H](N)CCCNC(=N)N)C(C)C)C(N)=O [Peptide 182, H2N-RSRWRDVARNFLRK(Palmitoyl)-NH2] (H-RSRWRDVARNFLRK(Palmitoyl)-NH2) | 32 µg/mL (≈ 15.3 µM) | >64 µg/mL | 32 µg/mL (≈ 15.3 µM) | 4 µg/mL (≈ 1.91 µM) | 64 µg/mL (≈ 30.5 µM) |  |
